With `COC1=C(OC)C(=O)C(C/C=C(\C)CC/C=C(\C)CC/C=C(\C)CC/C=C(\C)CC/C=C(\C)CC/C=C(\C)CC/C=C(\C)CC/C=C(\C)CC/C=C(\C)CCC=C(C)C)=C(C)C1=O` the solubility (mole fraction) (in ethanol, 270.15 K) was 1e-05, the solubility (mole fraction) (in ethanol, 280.15 K) was 1.1e-05 and the solubility (mole fraction) (in ethanol, 290.15 K) was 1.6e-05. The solubility (mole fraction) (in ethanol, 300.15 K) was 6.1e-05, the solubility (mole fraction) (in ethanol, 310.15 K) was 0.0002 and the solubility (mole fraction) (in ethanol, 320.15 K) was 0.0014. It also gave a solubility (mole fraction) (in ethyl acetate, 270.15 K) of 0.0006, a solubility (mole fraction) (in ethyl acetate, 280.15 K) of 0.0033 and a solubility (mole fraction) (in ethyl acetate, 290.15 K) of 0.0178. For the same molecule, the solubility (mole fraction) (in ethyl acetate, 300.15 K) was 0.09, the solubility (mole fraction) (in ethyl acetate, 310.15 K) was 0.431 and the solubility (mole fraction) (in ethyl acetate, 320.15 K) was 0.647. The solubility (mole fraction) (in isopropanol, 270.15 K) was 7e-06, the solubility (mole fraction) (in isopropanol, 280.15 K) was 8e-06 and the solubility (mole fraction) (in isopropanol, 290.15 K) was 6.2e-05. It also gave a solubility (mole fraction) (in isopropanol, 300.15 K) of 0.0005, a solubility (mole fraction) (in isopropanol, 310.15 K) of 0.0029 and a solubility (mole fraction) (in isopropanol, 320.15 K) of 0.0165. For the same molecule, the solubility (mole fraction) (in n-butanol, 270.15 K) was 1e-05, the solubility (mole fraction) (in n-butanol, 280.15 K) was 1.7e-05 and the solubility (mole fraction) (in n-butanol, 290.15 K) was 0.0001. It also gave a solubility (mole fraction) (in n-butanol, 300.15 K) of 0.0011, a solubility (mole fraction) (in n-butanol, 310.15 K) of 0.0107 and a solubility (mole fraction) (in n-butanol, 320.15 K) of 0.0934. The solubility (mole fraction) (in n-hexane, 270.15 K) was 0.0009, the solubility (mole fraction) (in n-hexane, 280.15 K) was 0.0044 and the solubility (mole fraction) (in n-hexane, 290.15 K) was 0.0207. For the same molecule, the solubility (mole fraction) (in n-hexane, 300.15 K) was 0.0931, the solubility (mole fraction) (in n-hexane, 310.15 K) was 0.399 and the solubility (mole fraction) (in n-hexane, 320.15 K) was 0.55. The solubility (mole fraction) (in n-propanol, 280.15 K) was 0.0002, the solubility (mole fraction) (in n-propanol, 290.15 K) was 0.0005 and the solubility (mole fraction) (in n-propanol, 300.15 K) was 0.0014. It also gave a solubility (mole fraction) (in n-propanol, 310.15 K) of 0.0039 and a solubility (mole fraction) (in n-propanol, 320.15 K) of 0.011.

Reference: BigSolDB 2.1
